Laboratory results: article PMC9697349, “Mouse Pharmacokinetics and In Vitro Metabolism of SH-11037 and SH-11008, Synthetic Homoisoflavonoids for Retinal Neovascularization” (Pharmaceutics, 2022)

Experiments:
[1] = system: hydrolysis of SH-11037 in dog plasma; format: in vitro ADME; settings: beagle, 2 h, 1 µM, pH 7.4
Procedure: (§1) Chemical inhibition assay was conducted in mouse, dog, and human plasma and mouse eye homogenate to identify the enzyme(s) involved in the hydrolysis of SH-11037. BW284c51 [16], DTNB [17], EPZ [18], and BNPP [19, 20] were used as selective inhibitors of acetylcholinesterase (AChE), paraoxonase 1 (PON1), butyrylcholinesterase (BchE), and carboxylesterase (CES), respectively. Mouse eyes (male ICR mouse, 8 weeks old) taken immediately after CO2 asphyxiation were homogenized by an electric tissue homogenizer (Tissue Master-125, Omni International, Kennesaw, GA, USA) in an equal amount of 0.1 M potassium phosphate buffer (pH 7.4) on ice. The resulting homogenate was then centrifuged at 3000× g for 20 min. The supernatant was stored at −80 °C until the experiment. DMSO stock solutions of the inhibitors (0.4, 4 and 40 mM) were mixed with plasma diluted 3-fold with 0.1 M phosphate buffer (pH 7.4) to a final volume of 160 μL and final inhibitor concentrations of 0.01, 0.1, and 1 mM. The supernatant of mouse eye homogenate was treated similarly with only BNPP as the inhibitor and a single inhibitor concentration of 1 mM. The resulting pre-incubation solutions were then incubated for 2 h at 37 °C in a shaking water bath. SH-11037 (40 μM) in 50 vol% aqueous CH3CN was mixed with the pre-incubation solutions to a final volume of 160 μL and a final concentration of 1 μM. The resulting solutions were then incubated at 37 °C in a shaking water bath. The incubations were terminated at selected times by adding 160 µL of ice-cold CH3CN containing glipizide (500 ng/mL) as the IS. The resulting mixture was vortexed, sonicated, and centrifuged at 3000× g for 20 min. Aliquots of the supernatant were subjected to LC-MS/MS analysis described below in Section 2.6.2.
(§2) The LC-MS/MS system consisted of Agilent 1290 Infinity HPLC system and Agilent 6530 Accurate-Mass Quadrupole Time-of-Flight (Q-TOF) mass spectrometer equipped with dual AJS ESI ion source (Agilent Technologies Korea, Seoul, Korea). Chromatographic separation was performed on an Agilent Eclipse Plus C18 column (2.1 × 100 mm, 3.5 μm) with a Phenomenex Security Guard C18 guard column (4 × 20 mm) maintained at 40 °C. The mobile phase consisted of 0.1% formic acid in deionized water (A) and 0.1% formic acid in CH3CN (B): 0~2 min 5% B, 2~7 min to 95% B, and 7~10 min 95% B. Total run time including a 5 min equilibration time was 15 min. The flow rate was 0.4 mL/min. The injection volume was 5 µL. The mass spectrometer was operated in a positive Auto MS/MS scan mode with a full scan mass range of m/z 100–1000, fragmentor voltage 150 V, and CE 30 eV, selecting the two most intense precursor ions for collision-induced dissociation. Putative metabolites were identified using Agilent Mass Hunter Metabolite ID software (ver.B.04.00) followed by manual interpretation of the spectral data. Chromatograms and mass spectra were extracted using Agilent Mass Hunter Qualitative Analysis software (ver. B.05.00).

[2] = format: in vitro ADME; settings: male, ICR, mouse, 1 min, 1 µM, pH 7.4
Procedure: as §1, §2

[3] = system: hydrolysis of SH-11037 in mouse plasma; format: in vitro ADME; settings: ICR, mouse, 1 min, 1 µM, pH 7.4
Procedure: as §1, §2

SMILES: COc1ccc(CC2COc3cc(OC)c(OC)c(OC)c3C2=O)cc1OC(=O)[C@H](Cc1ccccc1)NC(=O)OC(C)(C)C (stereo partly drawn) [SH-11037]
- SH-11008 Formation (%), % of SH-11037 converted to SH-11008 [1]: 91.7 ± 1.2%
- SH-11037 converted to SH-11008 [2]: ~ 90%
- SH-11008 Formation (%), % of SH-11037 converted to SH-11008 [3]: 98.3 ± 2.8%
